Experimental data reported in US7951364B2, “CaR receptor as a mediator of migratory cell chemotaxis and/or chemokinesis” (The General Hospital Corporation, priority 2000, dated 2011).

Legend:
CaR [1] = target: T1, CaR (Homo sapiens, UniProt P41180); experiment: Cytosolic calcium changes in purified monocytes (Indo-1/AM, flow cytometry); type: cell-based; settings: for Increase in cytosolic calcium: 1 μM in the presence of 1.5 mM Ca^++; for Stimulation of cytosolic calcium responses: monocytes
T1 construct: endogenous in cells; host or cells: peripheral blood CD14+ monocytes, sorted by FACS
T1 sequence (P41180 20-1078): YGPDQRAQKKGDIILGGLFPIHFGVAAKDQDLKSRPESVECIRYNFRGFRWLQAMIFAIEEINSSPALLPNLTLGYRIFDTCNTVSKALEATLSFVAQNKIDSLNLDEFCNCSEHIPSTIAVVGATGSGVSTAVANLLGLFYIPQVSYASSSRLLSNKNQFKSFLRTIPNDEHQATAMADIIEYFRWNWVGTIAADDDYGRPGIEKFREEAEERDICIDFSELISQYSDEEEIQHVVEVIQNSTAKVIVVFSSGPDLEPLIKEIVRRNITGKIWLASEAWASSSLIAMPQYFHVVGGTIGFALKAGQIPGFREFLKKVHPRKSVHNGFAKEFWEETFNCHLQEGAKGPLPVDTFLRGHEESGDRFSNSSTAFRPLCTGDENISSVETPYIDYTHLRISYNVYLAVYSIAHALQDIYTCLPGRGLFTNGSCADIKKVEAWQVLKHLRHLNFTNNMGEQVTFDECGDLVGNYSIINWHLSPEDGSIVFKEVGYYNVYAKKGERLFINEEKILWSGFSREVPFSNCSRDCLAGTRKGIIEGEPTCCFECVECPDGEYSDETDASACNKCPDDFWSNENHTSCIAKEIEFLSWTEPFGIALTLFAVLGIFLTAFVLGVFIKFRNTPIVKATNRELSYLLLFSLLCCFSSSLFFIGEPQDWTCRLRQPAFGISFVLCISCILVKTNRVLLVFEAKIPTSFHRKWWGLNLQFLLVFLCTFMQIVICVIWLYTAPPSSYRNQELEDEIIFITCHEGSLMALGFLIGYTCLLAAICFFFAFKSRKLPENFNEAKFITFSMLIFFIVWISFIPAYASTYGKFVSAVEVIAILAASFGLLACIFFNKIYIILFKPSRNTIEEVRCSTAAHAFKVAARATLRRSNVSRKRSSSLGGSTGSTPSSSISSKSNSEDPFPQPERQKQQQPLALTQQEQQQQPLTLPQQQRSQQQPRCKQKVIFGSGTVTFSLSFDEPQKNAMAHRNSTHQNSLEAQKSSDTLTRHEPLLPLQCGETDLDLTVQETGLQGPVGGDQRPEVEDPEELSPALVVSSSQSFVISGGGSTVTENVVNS
Method: (§1) Preparation of peripheral blood CD14^+ monocytes. Low density cells were isolated from human and mouse peripheral blood using Ficoll-Hypaque (Pharmacia, Piscataway, N.J.). CD14^+ monocytes were purified by sorting on FACSVantage (Becton Dickinson, San Jose, Calif.) based on CD14 expression. Purified cells were incubated in either calcium-free medium (Hanks' Balanced Salt Solution 1×, CellGro, Hermdon. VA) or Iscove's Medium 1×(Mod) (CellGro, Herndon, Va.) which contains 1.5 mM Ca++. […] Cells were incubated for up to 24 hours in 5% CO2 humidified air. Monocytes were then detached from the plate using a cell scraper. All calcium concentrations indicated in the presentation of the data represent the total Ca^++ present in the basal medium plus any added Ca^++.
Cytosolic calcium changes. Purified monocytes were loaded with Indo-1/AM (Molecular Probes, Eugene, Oreg.). Cells were collected on FACSVantage for 0.30 sec to establish a baseline emission value for Indo-1/AM. […] Data acquisition then continued for up to 5 minutes.

[2] = tested on: monocytes (Mac-1 positive mononuclear cells); experiment: Biologic activity in vivo: subcutaneous injection, monocyte infiltration at injection site; set-up: species or system C57BL/6 mice; settings: tissue excised 18 hours later, CaCl2 5.0 mM, NPS R-467 10 μM
Method: Biologic activity of ionic calcium in vivo. C57BL/6 mice (Jackson Laboratories) were injected subcutaneously at a marked, shaved spot on the abdomen with 20 μl of 5 mM CaCl2 or 20 μl of MCP-1 at a concentration of 10 ng/ml, with a combination of MCP-1 and 5 mM CaCl2 or with 10 μM NPS R-467 in PBS. Control mice were injected subcutaneously with 20 μl PBS alone. All subcutaneously injected agents contained less than 0.004 ng/ml of LPS by the limulus assay (Sigma) as previously described (Bleul, C. C., et al., J Exp Med, 1996, 184:1101-1109). Mice were sacrificed by CO2 asphyxiation 18 hours after injection, and injection sites were excised, snap-frozen and 4 μm cryosections were obtained and stained with hematoxylin and eosin. Immunocytochemistry was performed on the frozen sections using alkaline phosphatase-conjugated Mac-1 antibody (Pharmingen) as previously described and assessed by light microscopy (Bleul, C. C., et al., supra).

CD14^+ monocytes = experiment: Transmigration assay (monocyte chemotaxis, transwell); type: cell-based, human; settings: for Stimulation of transmigration: monocytes; for Interaction of chemokine with added/elevated Ca^++ on transmigration: chemokine in combination with elevated Ca^++; for Dependence of chemokine-induced chemotaxis of CD14^+ PBMC on extracellular calcium: positive concentration gradient of chemokine; for Inhibition of monocyte chemotaxis towards a positive gradient of Ca^++ by pretreatment: Ca^++ at 3 mM
Method: as §1
(§2) Transmigration assays. Transwells (5 μm pore size polycarbonate membrane, 12 mm diameter) (Costar, Corning, N.Y.) were used to assess cell migration using an established methodology (25). The concentration of Ca^++ in IMDM (CellGro, Herndon, Va.) in the upper and lower chambers of the transwell were adjusted according to a checkerboard analysis of chemotaxis. Calcium concentrations varied from 0 mM to 6.5 mM. Purified monocytes (1×10^4) were then placed in the top chamber with 150 μl of IMDM (CellGro, Hemdon, Va.). 500 μl of the medium was added to the bottom of the well and supplemented with varying concentrations of Ca^++ or with Ca^++ plus 10 ng/ml of MCP-1, 100 ng/ml of SDF-1α or 10 ng/ml of MIP-1α (PeproTech, Rocky Hills, N.Y.). Cells were incubated at 37° C. for 3 hours. To study inhibition of chemotaxis, cells were subsequently incubated with wortmannin (1 μM for 20 minutes at 37° C.), herbimycin (1 μM for 20 minutes at 37° C.) or genistein (1 μg/ml for 20 minutes at 37° C.), before their use in transmigration assays. At the end of the experiment, cells were then harvested from the lower chamber and counted using a hemocytometer.

CCR-2 = experiment: Chemokine receptor expression on monocytes by flow cytometry: CCR-2; type: cell-based, human; settings: for Mean fluorescent intensity -CCR-2 Mean +/− s.e.m.: CD14^+ monocytes, agonist 1 μM in the presence of 1.5 mM Ca^++
Method: (§3) Chemokine receptor expression and flow cytometric analysis.
Table 1: Exposure of CD14^+ monocytes to Ca^++ enhances CCR2 expression in a dose dependent manner. Monocytes were exposed to varying concentrations of Ca^++ and to the selective CaR activator, NPS R-467 (1 μM), or to NPS S-467 (1 μM) in the presence of 1.5 mM Ca^++. The median fluorescence intensity for CCR2 expression was measured for each Ca^++ concentration and in the presence of NPS R-467 or S-467. Mean values +/−s.e.m. from three independent experiments are shown.

CaR [3] = experiment: CaR surface expression on monocytes after exposure to chemokines; type: cell-based, human; settings: monocytes after chemokine stimulation; untreated 361+/−25
Excerpt: as §3
In order to assess whether there was reciprocal regulation of the CaR by chemokine receptors, we evaluated CaR surface expression on cells before and after exposure to the chemokines, SDF-1α or MCP-1. The mean fluorescence intensity of CaR expression was 361+/−25 (mean+/−s.e.m.) units for untreated monocytes and rose to 673+/−59 following MCP-1 stimulation. Monocytic expression of CaR rose to 519+/−48 with SDF-1α a treatment.

human CD34^+ cells = experiment: In vitro assays of human CD34^+ hematopoietic progenitor cells; type: cell-based; settings: in the setting of CaR activation
Excerpt: Calcium ions effect Hematopoietic Progenitor Cells. We also assessed the effects of calcium, through its interaction with the calcium sensing receptor (CaR) using in vitro assays of human CD34^+ cells. […] Therefore, calcium participates in maintaining candidate stem cells in a primitive, undifferentiated state. […] This was accompanied by a decrease in the level of LTC-ICs in the bone marrow, but an increase in the level of CFU-Cs, with a converse increase in hematopoietic stem cells in is the peripheral blood.

[4] = tested on: mononuclear cells derived from neonatal CaR −/−, +/− or +/+ mice; experiment: Transmigration assay with cells from CaR knockout and wild-type mice; type: cell-based, mouse; settings: CaR −/−, +/− or +/+ cells
Method: as §2
CaR−/− were bred as previously described (Ho, C., et al., Nat Genet 1995, 11:389-94). To produce CaR−/− mice for this study, heterozygote mice were intercrossed. The mice studied were either 129S6/svev or 129S6/svev/Swiss Webster mixed genetic background. […]

COc1cccc([C@@H](C)NCCCc2ccccc2)c1 [NPS R-467, reference compound]
Increase in cytosolic calcium (CaR [1]): Sustained increases | Stimulation of cytosolic calcium responses (CaR [1]): Stimulation | Accumulation of mononuclear cells staining positive for Mac-1 at injection site [2]: Accumulation | Potency of R-467 vs. S-467 in enhancing actions of high Ca^++ (cytosolic calcium, chemotaxis) (CD14^+ monocytes): greater potency | Stimulation of transmigration (CD14^+ monocytes): Stimulation | Mean fluorescent intensity -CCR-2 Mean +/− s.e.m. (CCR-2): 460 +/− 52

SDF-1α
Mean fluorescence intensity of CaR expression (mean+/−s.e.m.) (CaR [3]): 519+/−48 units | Interaction of chemokine with added/elevated Ca^++ on transmigration (CD14^+ monocytes): no synergistic effect | Dependence of chemokine-induced chemotaxis of CD14^+ PBMC on extracellular calcium (CD14^+ monocytes): induced migration independent of calcium | Chemotactic responses of primitive hematopoietic cells to SDF-1α (human CD34^+ cells): attenuated

CO[C@H]1[C@@H](OC)C[C@H](C)[C@@H](OC)C2=CC(=O)C=C(NC(=O)/C(C)=C/C=C\[C@H](OC)[C@@H](OC(N)=O)/C(C)=C/[C@@H]1C)C2=O [herbimycin, reference compound]
Inhibition of Ca^++-induced monocyte chemotaxis by pretreatment (CD14^+ monocytes): inhibitable | Inhibition of monocyte chemotaxis towards a positive gradient of Ca^++ by pretreatment (CD14^+ monocytes): inhibitable

O=c1c(-c2ccc(O)cc2)coc2cc(O)cc(O)c12 [genistein, reference compound]
Inhibition of Ca^++-induced monocyte chemotaxis by pretreatment (CD14^+ monocytes): inhibitable | Inhibition of monocyte chemotaxis towards a positive gradient of Ca^++ by pretreatment (CD14^+ monocytes): inhibitable

COc1cccc([C@H](C)NCCCc2ccccc2)c1 [NPS S-467, reference compound]
Increase in cytosolic calcium (CaR [1]): Sustained increases | Stimulation of cytosolic calcium responses (CaR [1]): Stimulation | Stimulation of transmigration (CD14^+ monocytes): Stimulation | Mean fluorescent intensity -CCR-2 Mean +/− s.e.m. (CCR-2): 417 +/− 48

MCP-1: chemokine (PeproTech), ligand of CCR-2
Chemotaxis of mouse mononuclear cells [4]: capable of chemotaxing | Mean fluorescence intensity of CaR expression (mean+/−s.e.m.) (CaR [3]): 673+/−59 units | Accumulation of mononuclear cells staining positive for Mac-1 at injection site [2]: Accumulation | Interaction of chemokine with added/elevated Ca^++ on transmigration (CD14^+ monocytes): synergistic | Dependence of chemokine-induced chemotaxis of CD14^+ PBMC on extracellular calcium (CD14^+ monocytes): dependent upon extracellular calcium

NCCCNCCCCNCCCN [spermine, reference compound]
Stimulation of cytosolic calcium responses (CaR [1]): Stimulation | Stimulation of transmigration (CD14^+ monocytes): Stimulation

C[C@@H]1C[C@@H]([C@H](O)CC2CC(=O)NC(=O)C2)C(=O)[C@@H](C)C1 [cyclohexamide, reference compound]
Effect on the Ca^++-mediated upregulation of CCR-2 (CCR-2; inhibition of new protein synthesis): no effect

B1: MIP-1α: chemokine (PeproTech) (protein, UniProt P10147 24-92, looked up)
C-C motif chemokine 3: SLAADTPTACCFSYTSRQIPQNFIADYFETSSQCSKPGVIFLTKRSRQVCADPSEEWVQKYVSDLELSA
Interaction of chemokine with added/elevated Ca^++ on transmigration (CD14^+ monocytes): no synergistic effect | Dependence of chemokine-induced chemotaxis of CD14^+ PBMC on extracellular calcium (CD14^+ monocytes): induced migration independent of calcium
